Measurements taken from US11642336B2, “5-HT2A agonists for use in treatment of depression” (priority 2019, dated 2023).
Counter-ions that a name gives are not always drawn. Like-named read-outs stand apart in the source and are kept apart here. Marks after values point to notes of the source that are not given here.

How the values were obtained:
human 5-HT2A [1] = molecular target: T1, human 5-HT2A (Homo sapiens (Human), UniProt P28223); experiment: cell-based; assay type: cell-based; conditions: for 5-HT2A Rmax ± S.E.M: % of the Rmax of 5-HT; for Selectivity EC50 5-HT2C/EC50 5-HT2A: Ca2+/Fluo-4 assay, bounds are conservative estimates; for EC50: agonist potency, n = 3-4
human 5-HT2A [2] = molecular target: T1, human 5-HT2A; experiment: cell-based; assay type: cell-based; conditions: for EC50: duplicate determinations
5-HT2C [3] = molecular target: T2, 5-HT2C (Homo sapiens (Human), UniProt P28335); experiment: Ca2+/Fluo-4 assay, stable h5-HT2C-HEK293 cell line; assay type: cell-based; conditions: for EC50: agonist potency, n = 3-4; for 5-HT2C agonist activity (n.a./w.a.): tested up to 50 μM;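 for all read-outs here: Agonist-induced intracellular Ca2+ rise read by Fluo-4 fluorescence in HEK293 cells stably expressing the human 5-HT2C receptor, each compound run in duplicate on three or more occasions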
Experimental: The functional properties of the compounds were characterised at stable HEK293 cell lines stably expressing the human 5-HT2A receptor or human 5-HT2C receptor in the Ca^2+/Fluo-4 assay essentially as previously described.^10 Briefly, the cells were split into poly-D-lysine-coated black 96-well plates with clear bottoms (6×10^4 cells/well). The following day the culture medium was aspirated and the cells were incubated in 50 μl assay buffer [Hanks Buffered Saline Solution containing 20 mM HEPES, 1 mM CaCl2, 1 mM MgCl2, 2.5 mM probenecid, pH 7.4] supplemented with 6 mM Fluo-4/AM at 37° C. for 1 hour. Next, the buffer was aspirated, the cells were washed once with 100 μl assay buffer, and then 100 μl assay buffer was added to the cells (in the antagonist experiments the compound was added at this point). […] The compounds were characterized in duplicate at least three times at each cell line.

5-HT2B = 5-HT2B (Homo sapiens (Human), UniProt P41595); experiment: IP assay (Eurofins, IP1 HTRF), HEK293 cells; assay type: cell-based; conditions: for 5-HT2B Rmax: % of Rmax of 5-HT; for Selectivity EC50 5-HT2B/EC50 5-HT2A: bounds are conservative estimates; for EC50: duplicate determinations, read-out: 5-HT2B EC50;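 for 5-HT2B Rmax: agonist effect read as cellular IP1 production by HTRF using a europium cryptate anti-IP1 antibody donor and D2-labeled IP1 acceptor, eight compound concentrations in each cell line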;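 for Selectivity EC50 5-HT2B/EC50 5-HT2A: agonist effect read as cellular IP1 production by HTRF using a europium cryptate anti-IP1 antibody donor and D2-labeled IP1 acceptor, eight compound concentrations in each cell line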
Experimental: (§1) The agonist properties of the compounds were characterized at HEK293 cell lines expressing the human 5-HT2A, human 5-HT2B or human 5-HT2C receptors in an IP assay essentially as previously described.^19 The testing was performed by Eurofins. In the assay, the agonist activity of the compound at the receptors is investigated by measuring its effect on IP1 production in the cell using the Homogeneous Time Resolved Fluorescence (HTRF) detection method. […] Following incubation, the cells were lysed, and the fluorescence acceptor (D2-labeled IP1) and fluorescence donor (anti-IP1 antibody labeled with europium cryptate) were added. […] The test compounds were characterized in eight different concentrations in duplicate at each of the three cell lines.

5-HT2C [4] = molecular target: T2, 5-HT2C; experiment: IP assay (Eurofins, IP1 HTRF), HEK293 cells; assay type: cell-based;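 for 5-HT2B Rmax: agonist effect read as cellular IP1 production by HTRF using a europium cryptate anti-IP1 antibody donor and D2-labeled IP1 acceptor, eight compound concentrations in each cell line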;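 for Selectivity EC50 5-HT2B/EC50 5-HT2A: agonist effect read as cellular IP1 production by HTRF using a europium cryptate anti-IP1 antibody donor and D2-labeled IP1 acceptor, eight compound concentrations in each cell line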
Experimental: as §1

[5] = system: male Sprague Dawley rats treated with ACTH or vehicle; experiment: forced swim test, adrenocorticotropic hormone (ACTH) model; assay type: in vivo
Experimental: The adrenocorticotropic hormone model (ACTH) model was conducted as previously described.^14 Male Sprague Dawley rats were used (age 7 weeks, N=50) (Taconic Biosciences A/S, Lille Skensved, Denmark). After 1 week habituation, the rats were given either 100 μg ACTH/animal/day s.c. (Adrenocorticotropic Hormone 1-24 (China Peptides, China)) at 10 a.m. for 14 days (n=30) or vehicle (VEH) consisting of 0.9% saline (n=20). At day 14, the rats were subjected to a pre-swim test (15 minutes). […] Preceding the FST, rat baseline mobility was determined in the (OFT). The OFT and the FST were conducted as described above.

[6] = read-out: 5-HT2A [pEC50 ± S.E.M.] (converted)

5-HT2B, sequence (P41595 whole entry, looked up): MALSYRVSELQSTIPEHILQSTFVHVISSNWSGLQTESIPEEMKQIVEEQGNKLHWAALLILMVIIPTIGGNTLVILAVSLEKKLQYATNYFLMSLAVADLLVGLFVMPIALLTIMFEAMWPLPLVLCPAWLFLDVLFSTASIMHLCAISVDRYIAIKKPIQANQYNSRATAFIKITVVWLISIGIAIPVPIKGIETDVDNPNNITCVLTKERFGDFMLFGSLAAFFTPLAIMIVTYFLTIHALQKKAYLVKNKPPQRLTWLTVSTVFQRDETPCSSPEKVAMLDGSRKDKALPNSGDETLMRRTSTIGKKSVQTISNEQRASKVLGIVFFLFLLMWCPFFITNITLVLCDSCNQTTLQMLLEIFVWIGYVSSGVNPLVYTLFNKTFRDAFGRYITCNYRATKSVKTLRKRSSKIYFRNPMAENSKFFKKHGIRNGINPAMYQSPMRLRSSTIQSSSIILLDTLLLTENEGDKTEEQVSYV
T2 sequence (P28335 whole entry, looked up): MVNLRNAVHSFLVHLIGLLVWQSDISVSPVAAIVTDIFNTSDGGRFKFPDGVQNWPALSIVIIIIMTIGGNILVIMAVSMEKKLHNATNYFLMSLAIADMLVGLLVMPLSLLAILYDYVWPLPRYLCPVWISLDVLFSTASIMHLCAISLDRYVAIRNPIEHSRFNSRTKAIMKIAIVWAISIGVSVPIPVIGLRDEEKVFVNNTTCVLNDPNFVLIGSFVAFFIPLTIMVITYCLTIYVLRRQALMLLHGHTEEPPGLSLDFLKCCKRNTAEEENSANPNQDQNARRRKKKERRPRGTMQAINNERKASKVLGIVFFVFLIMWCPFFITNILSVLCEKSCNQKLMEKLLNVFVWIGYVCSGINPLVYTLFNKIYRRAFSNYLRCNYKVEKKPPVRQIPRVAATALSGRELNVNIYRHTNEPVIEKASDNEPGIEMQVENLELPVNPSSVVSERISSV

| SMILES | 5-HT2A Rmax ± S.E.M (human 5-HT2A [1]) [%] | Selectivity EC50 5-HT2C/EC50 5-HT2A (human 5-HT2A [1]) | EC50 (human 5-HT2A [1]; [6]) [nM] | 5-HT2A Rmax (human 5-HT2A [2]; IP assay, % of Rmax of 5-HT) [%] | EC50 (human 5-HT2A [2]; IP assay) [nM] | 5-HT2C Rmax ± S.E.M (5-HT2C [3]; % of the Rmax of 5-HT) [%] | EC50 (5-HT2C [3]; read-out: 5-HT2C EC50) [nM] | EC50 (5-HT2C [3]; read-out: 5-HT2C [pEC50 ± S.E.M.] (converted)) [nM] | 5-HT2B Rmax (5-HT2B) [%] | Selectivity EC50 5-HT2B/EC50 5-HT2A (5-HT2B) | EC50 (5-HT2B) [nM] | EC50 (human 5-HT2A [1]; read-out: 5-HT2A EC50) [nM] | 5-HT2C agonist activity (n.a./w.a.) (5-HT2C [3]) | 5-HT2B agonist activity (n.a.) (5-HT2B; up to 100 μM (Table 3)) | EC50 (5-HT2C [4]) [nM] | 5-HT2C Rmax (%) (5-HT2C [4]; IP assay, % of Rmax of 5-HT) | 5-HT2A Rmax (human 5-HT2A [2]) [%] | immobility time in the forced swim test, ACTH-treated rats ([5]; ACTH-treated rats, FIG. 4A) | immobility time in the forced swim test, vehicle-treated rats ([5]; vehicle-treated rats, 15 mg/kg i.p., FIG. 4B) |
| --- | --- | --- | --- | --- | --- | --- | --- | --- | --- | --- | --- | --- | --- | --- | --- | --- | --- | --- | --- |
| CCSc1cc([C@@H]2CCCNC2)c(OC)cc1C(F)(F)F.Cl [Compound 47, (S)-3-(2-methoxy-5-(ethylthio)-4-(trifluoromethyl)phenyl)piperidine Hydrochloride] | 96 ± 3 | 17 | 26.3 | 95 | 130 | 43 ± 6 | 450 | 457 | 49 | 4.8 | 620 | – | – | – | – | – | – | – | – |
| COc1cc(C(F)(F)F)ccc1[C@@H]1CCCNC1 [Compound 53, (S)-3-(2-methoxy-4-(trifluoromethyl)phenyl)piperidine hydrochloride] | 68 ± 2 | – | – | 87 | 250 | – | – | – | 51 | – | 940 | 69 | w.a. | – | – | – | – | – | – |
| COc1cc([C@@H]2CCCNC2)c(OC2CC2)cc1C(F)(F)F [Compound 55, (S)-3-(2-cyclopropoxy-5-methoxy-4-(trifluoromethyl)phenyl)piperidine hydrochloride] | 30 ± 5 | >50^e | 1070 | 38 | 3000 | – | – | – | – | >30^c | > 100000 | 1100 | w.a. | n.a. [@ 100 μM]^a > (no agonist activity: the compound did not evoke significant responses at concentrations up to 100 μM) | – | – | – | – | – |
| CCCCc1cc(OC)c([C@@H]2CCCNC2)cc1OC [Compound 57, (S)-3-(4-butyl-2,5-dimethoxyphenyl)piperidine hydrochloride] | – | – | – | 62 | 190 | – | – | – | 18 | – | 350 | 270 | w.a. | – | – | – | – | – | – |
| COc1cc(CC(C)N)c(OC)cc1I (stereo not shown) [DOI, 2,5-Dimethoxy-4-iodoamphetamine, reference compound] | – | – | – | – | – | – | – | – | 79 | – | – | – | – | – | 9.1 | 89 | 89 | – | – |
| CN(C)CCCN1c2ccccc2CCc2ccccc21 [imipramine] | – | – | – | – | – | – | – | – | – | – | – | – | – | – | – | – | – | lack of effect | significant antidepressant-like effect |
